Columns and labels:
[1] = higher doses; cited from earlier work
[2] = tested on: human erythrocytes; conditions: pluronic used as emulsifying agent for amphotericin-B; cited from earlier work
[3] = tested on: MCF-7 (breast cancer) cell line; assay: Mitogenic (MTT) assay, antiproliferative effect in MCF-7 cells; assay type: cell-based
Procedure: The cell culture experiments were carried out in MCF-7 (breast cancer) cell line purchased from American Type Culture Collection (ATCC, Manassas, Va.) were grown in RPMI 1640 medium (Himedia Laboratories Pvt. Ltd., Mumbai, India) supplemented with 10% fetal bovine serum (Himedia Laboratories Pvt. Ltd., Mumbai, India) and 100 μg/ml penicillin G and 100 μg/ml streptomycin (Gibco BRL, Grand island, NY) at 37° C. in a humidified and 5% CO2 atmosphere (Hera Cell, Thermo Scientific, Waltham, Mass.).
(§1) To find out the cytotoxicity of the anticancer drugs, mitogenic assay was carried out. The MCF-7 cells were seeded at 5,000 per well in 96 well plate (Corning, N.Y., USA) and kept in the incubator for 24 hours for better cell attachment. […] Glyceryl monooleate (GMO) Magnetic nanoparticles (MNPs) without drug and medium were used as respective controls. The medium was changed on 2nd and 4th days following the drug treatment; no further dose of drug was added. Viability of the cells was determined at 5th day. After the specified incubation time, 10 μl MTT (Sigma) was added, and the plates were incubated for 3 hours at 37° C. in a cell culture incubator (Hera Cell, Thermo Scientific, Waltham, Mass.), following which the intracellular formazan crystals were solubilized in dimethyl sulfoxide and the color intensity was measured at 540 nm using a microplate reader (Synergy HT, BioTek Instruments, Inc., Winooski, Vt.). The antiproliferative effect of different treatments was calculated as a percentage of cell growth with respect to respective controls.
The cell culture experiments were carried out in MCF-7 (breast cancer) cell line purchased from American Type Culture Collection (ATCC, Manassas, Va.) were grown in RPMI 1640 medium (Himedia Laboratories PVT. LTD., Mumbai, India) supplemented with 10% fetal bovine serum (Himedia Laboratories Pvt. Ltd., Mumbai, India) and 100 μg/ml penicillin G and 100 μg/ml streptomycin (Gibco BRL, Grand island, NY) at 37° C. in a humidified and 5% CO2— atmosphere (Hera Cell, Thermo Scientific, Waltham, Mass.).
as §1, with “GMO-MNPs” for “Glyceryl monooleate (GMO) Magnetic nanoparticles (MNPs)”

[4] = MCF-7, MTT day 5, highest concentration of the range (1000 ng/ml, printed for paclitaxel)
[5] = MCF-7, MTT day 5, lowest concentration of the range (1 ng/ml, printed for paclitaxel)

| IC50 ([3]; Homo sapiens, MCF7, 120 h, MCF-7 cells, MTT assay on day 5, medium changed on days 2 and 4) | Compound | effect on cholesterol and triglycerides in the blood plasma [1] | concentration with detectable cell lysis of human erythrocytes [2] | cell viability percentage [3, 4] | cell viability percentage [3, 5] |
| --- | --- | --- | --- | --- | --- |
| – | Pluronic F-127 | elevation of cholesterol and triglycerides in the blood plasma | 16 µg/mL | – | – |
| – | CC(=O)O[C@H]1C(=O)[C@@]2(C)[C@H]([C@H](OC(=O)c3ccccc3)[C@]3(O)C[C@H](OC(=O)[C@H](O)[C@@H](NC(=O)c4ccccc4)c4ccccc4)C(C)=C1C3(C)C)[C@]1(OC(C)=O)CO[C@@H]1C[C@@H]2O [paclitaxel, Paclitaxel] | – | – | about 30% | 95% |
| 0.0588 µg/mL | CO[C@H]1C[C@@H]2CC[C@@H](C)[C@@](O)(O2)C(=O)C(=O)N2CCCC[C@H]2C(=O)O[C@H]([C@H](C)C[C@@H]2CC[C@@H](O)[C@H](OC)C2)CC(=O)[C@H](C)/C=C(\C)[C@@H](O)[C@@H](OC)C(=O)[C@H](C)C[C@H](C)/C=C/C=C/C=C/1C [rapamycin] | – | – | 37% | 65% |

— US9271934B2, “Water dispersible glyceryl monooleate magnetic nanoparticle formulation” (Institute of Life Sciences, priority 2009, dated 2016)
